From publication PMC2248166, “Quantitative peptide binding motifs for 19 human and mouse MHC class I molecules derived using positional scanning combinatorial peptide libraries” (Immunome Research, 2008)

Columns and labels:
HLA A*3001 = HLA A*3001 (Homo sapiens, UniProt P04439, D140H/D185E/E176W/F33S/G80R/H175R/K168Q/R138E/R41S); test: biochemical; assay type: binding
HLA A*3201 = HLA A*3201 (Homo sapiens, UniProt P04439, A270S/D101S/D185E/E176V/E277Q/F133L/G103R/G107R/G231S/H175R/I121M/I218V/I322F/K168Q/L105A/L300P/L318F/M331R/P208A/P217A/Q94H/R106L/R138Q/S129P/T104I/T323A/T345S/V100E/V321M/V358M); test: biochemical; assay type: binding
HLA A*6802 = HLA A*6802 (Homo sapiens, UniProt P04439, A269V/D140Y/D185E/E176V/E277Q/E87N/F33Y/G231S/I121R/I166T/I218V/L180W/L300P/L318F/N151K/P208A/P217A/Q86R/R138H/R169H/S129P/T345S/V36M); assay type: binding
HLA B*0702 = HLA B*0702 (Homo sapiens, UniProt P01889); assay type: binding; settings: positional scanning combinatorial 9-mer library; normalized to 1.0 for the best residue at each position
HLA B*0801 = HLA B*0801 (Homo sapiens, UniProt P01889, A93T/A95T/D138N/E176V/E187T/K202T/Q94N/R180D/S35A/V36M/Y33D/Y91F); test: biochemical; assay type: binding
HLA B*1501 = HLA B*1501 (Homo sapiens, UniProt P01889, A329T/A93T/A95T/C349S/D201E/D98Y/E187L/E204Q/E69M/E70A/K202T/N87E/Q94N/R155S/R180W/S121R/S35A/S48A/V306I/V36M/Y140S/Y91S); test: biochemical; assay type: binding
HLA B*1503 = HLA B*1503 (Homo sapiens, UniProt P01889, A329T/A93T/A95T/C349S/D201E/D98Y/E187L/E204Q/K202T/N87E/Q94N/R155S/R180L/S121R/S35A/V306I/V36M/Y140S/Y91S); test: biochemical; assay type: binding
HLA B*2705 = HLA B*2705 (Homo sapiens, UniProt P01889, D138H/D201E/E176V/E204Q/G107R/H137Y/K202T/N104T/N87E/Q56L/Q94K/R106L/R155S/R180L/S101D/S121N/S48T/Y140D/Y33H/Y91C); assay type: binding; settings: positional scanning combinatorial 9-mer library; normalized to 1.0 for the best residue at each position
HLA B*3501 = HLA B*3501 (Homo sapiens, UniProt P01889, A329T/A93T/A95T/C349S/D201E/D98Y/E176V/E187L/E204Q/E69T/I218V/K202T/L119I/Q94N/R155S/R180L/S121R/S35A/S48A/T118I/V127L/V306I/V36M/Y140S/Y91F); assay type: binding
HLA B*5101 = HLA B*5101 (Homo sapiens, UniProt P01889, A329T/A93T/A95T/C349S/D138N/D201E/D98Y/E187L/E204Q/E69T/G107R/I218V/K202T/L105A/L119W/N104I/Q94N/R106L/R155S/R180L/S101N/S121T/S35A/S48A/V306I/V36M/Y195H/Y91F); assay type: binding
HLA B*5301 = HLA B*5301 (Homo sapiens, UniProt P01889, A329T/A93T/A95T/C349S/D201E/D98Y/E176V/E187L/E204Q/E69T/G107R/I218V/K202T/L105A/L119I/N104I/Q94N/R106L/R155S/R180L/S101N/S121R/S35A/S48A/T118I/V127L/V306I/V36M/Y140S/Y91F); assay type: binding
HLA B*5401 = HLA B*5401 (Homo sapiens, UniProt P01889, A329T/C349S/D138N/D201E/E176V/E187T/E204Q/E69G/I76V/K202T/L119W/R155S/R180L/S121T/S35A/S48A/V127L/V306I/V36M/Y140L); assay type: binding
HLA B*5801 = HLA B*5801 (Homo sapiens, UniProt P01889, A329T/C349S/D201E/D98Y/E176V/E187L/E204Q/E69T/G107R/I218V/I90N/K202T/L105A/L119I/N104I/N87E/Q89R/Q94S/R106L/R155S/R180L/R86G/S101N/S121R/S35A/S48A/T118I/V127L/V306I/V36M/Y140S/Y91M); assay type: binding
HLA B*5802 = HLA B*5802 (Homo sapiens, UniProt P01889, A329T/C349S/D201E/D98Y/E176V/E187L/E204Q/E69T/G107R/I218V/I90N/K202T/L105A/N104I/N87E/Q89R/Q94S/R106L/R155S/R180L/R86G/S101N/S121W/S35A/S48A/V127L/V306I/V36M/Y140S/Y91M); assay type: binding
H-2 D^b = H-2 D^b (Mus musculus, UniProt P01899); assay type: binding
H-2 D^b, sequence (P01887 21-119): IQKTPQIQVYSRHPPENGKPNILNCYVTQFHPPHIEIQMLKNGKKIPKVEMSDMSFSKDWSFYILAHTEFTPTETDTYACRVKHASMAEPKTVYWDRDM
H-2 D^b, sequence (P01899 25-362): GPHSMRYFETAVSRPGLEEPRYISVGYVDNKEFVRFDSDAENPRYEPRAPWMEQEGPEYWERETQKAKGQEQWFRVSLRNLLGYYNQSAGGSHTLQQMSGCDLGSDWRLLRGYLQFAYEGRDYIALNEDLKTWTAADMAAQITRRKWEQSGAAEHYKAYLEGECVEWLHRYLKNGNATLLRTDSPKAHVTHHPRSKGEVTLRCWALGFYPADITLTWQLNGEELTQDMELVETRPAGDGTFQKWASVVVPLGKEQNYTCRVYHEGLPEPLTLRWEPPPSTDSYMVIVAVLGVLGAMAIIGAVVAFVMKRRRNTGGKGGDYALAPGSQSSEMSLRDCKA

H-2 D^d = H-2 D^d (Mus musculus, UniProt P01900); assay type: binding
H-2 D^d, sequence (P01900 whole entry, looked up): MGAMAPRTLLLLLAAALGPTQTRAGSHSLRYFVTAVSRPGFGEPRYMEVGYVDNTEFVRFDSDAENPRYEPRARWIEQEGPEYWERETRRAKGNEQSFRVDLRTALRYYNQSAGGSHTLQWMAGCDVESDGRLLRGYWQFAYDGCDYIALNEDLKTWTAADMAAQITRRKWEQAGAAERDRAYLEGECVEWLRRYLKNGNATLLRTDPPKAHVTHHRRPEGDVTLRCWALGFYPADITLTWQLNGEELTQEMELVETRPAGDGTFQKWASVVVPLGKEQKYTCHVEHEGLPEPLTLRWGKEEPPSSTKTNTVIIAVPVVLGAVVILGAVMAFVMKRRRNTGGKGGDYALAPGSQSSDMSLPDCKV

H-2 K^k = H-2 K^k (Mus musculus, UniProt P04223); assay type: binding
H-2 K^k, sequence (P01887 21-119): as the sequence (P01887 21-119) above
H-2 K^k, sequence (P04223 22-369): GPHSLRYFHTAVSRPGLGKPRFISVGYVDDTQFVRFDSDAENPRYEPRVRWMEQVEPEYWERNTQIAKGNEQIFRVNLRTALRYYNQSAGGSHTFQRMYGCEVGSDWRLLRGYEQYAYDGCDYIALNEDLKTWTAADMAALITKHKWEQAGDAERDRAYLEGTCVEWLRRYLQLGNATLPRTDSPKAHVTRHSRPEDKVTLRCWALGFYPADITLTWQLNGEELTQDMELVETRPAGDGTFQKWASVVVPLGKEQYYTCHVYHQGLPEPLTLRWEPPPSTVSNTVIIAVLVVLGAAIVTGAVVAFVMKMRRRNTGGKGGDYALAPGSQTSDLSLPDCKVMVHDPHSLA

HLA A*0201 = HLA A*0201 (Homo sapiens, UniProt P04439, D140Y/D185E/D98H/E176V/E277Q/G131W/G231S/I119V/I121R/I166T/I218V/L300P/L318F/N151K/N90K/P208A/P217A/Q86G/Q94H/R138H/R169H/T345S); settings: positional scanning combinatorial 9-mer library; normalized to 1.0 for the best residue at each position

Sequence | Normalized average relative binding affinity (ARB), HLA A*3001 (HLA A*3001) | Normalized average relative binding affinity (ARB), HLA A*3201 (HLA A*3201) | Normalized average relative binding affinity (ARB), HLA A*6802 (HLA A*6802) | Normalized average relative binding affinity (ARB), HLA B*0702 (HLA B*0702) | Normalized average relative binding affinity (ARB), HLA B*0801 (HLA B*0801) | Normalized average relative binding affinity (ARB), HLA B*1501 (HLA B*1501) | Normalized average relative binding affinity (ARB), HLA B*1503 (HLA B*1503) | Normalized average relative binding affinity (ARB), HLA B*2705 (HLA B*2705) | Normalized average relative binding affinity (ARB), HLA B*3501 (HLA B*3501) | Normalized average relative binding affinity (ARB), HLA B*5101 (HLA B*5101) | Normalized average relative binding affinity (ARB), HLA B*5301 (HLA B*5301) | Normalized average relative binding affinity (ARB), HLA B*5401 (HLA B*5401) | Normalized average relative binding affinity (ARB), HLA B*5801 (HLA B*5801) | Normalized average relative binding affinity (ARB), HLA B*5802 (HLA B*5802) | Normalized average relative binding affinity (ARB), H-2 Db (H-2 D^b) | Normalized average relative binding affinity (ARB), H-2 Dd (H-2 D^d) | Normalized average relative binding affinity (ARB), H-2 Kk (H-2 K^k) | Normalized average relative binding affinity (ARB), HLA A*0201 (HLA A*0201)
CXXXXXXXX [3064.0002] | 0.097 | 0.11 | 0.13 | 0.19 | 0.16 | 0.19 | 0.20 | 0.11 | 0.19 | 0.19 | 0.061 | 0.027 | 0.18 | 0.048 | 0.16 | 0.26 | 0.51 | 0.032
DXXXXXXXX [3064.0003] | 0.0069 | 0.031 | 0.21 | 0.021 | 0.13 | 0.042 | 0.016 | 0.022 | 0.11 | 0.27 | 0.028 | 0.050 | 0.013 | 0.068 | 0.033 | 0.059 | 0.43 | 0.0078
EXXXXXXXX [3064.0004] | 0.018 | 0.12 | 1.0 | 0.069 | 0.36 | 0.16 | 0.090 | 0.089 | 0.085 | 0.10 | 0.021 | 0.040 | 0.032 | 0.066 | 0.030 | 0.16 | 0.77 | 0.015
FXXXXXXXX [3064.0005] | 0.035 | 0.090 | 0.53 | 0.21 | 0.57 | 0.59 | 1.0 | 0.60 | 0.50 | 0.25 | 0.14 | 0.74 | 0.34 | 0.081 | 1.0 | 0.34 | 1.0 | 1.0
GXXXXXXXX [3064.0006] | 0.11 | 0.14 | 0.022 | 0.15 | 0.088 | 0.43 | 0.063 | 0.60 | 0.030 | 0.028 | 0.0086 | 0.0071 | 0.069 | 0.14 | 0.096 | 0.15 | 0.14 | 0.089
HXXXXXXXX [3064.0007] | 0.49 | 0.38 | 0.53 | 0.80 | 0.18 | 0.59 | 0.20 | 0.49 | 1.0 | 0.15 | 1.0 | 0.34 | 0.43 | 0.026 | 0.17 | 0.21 | 0.91 | 0.0048
